Molecular target: T1, VSG221 (variant surface glycoprotein 221, MITat 1.2) (Trypanosoma brucei, UniProt P26332)
T1 construct: soluble form VSG (sVSG) purified from parental bloodstream forms, N-glycosylated (Asn263, Asn428)
Assay: SPR (Biacore T200) on immobilized VSG221, […]
Assay type: binding

Compound: CN[C@@H]1[C@H](O[C@@H]2OC[C@@H](O)[C@H](O)[C@H]2O)[C@@H](O)[C@H](O[C@H]2c3cc(C)c(C(=O)N[C@H](C)C(=O)O)c(O)c3-c3c(cc4c(c3O)C(=O)c3cc(OC)cc(O)c3C4=O)[C@@H]2O)O[C@@H]1C [PRM-A, pradimicin A]
- SPR (Biacore T200) on immobilized VSG221, 1.56 to 50 uM: using the high-density parental Tb BSF VSG221 sensorchip, concentration-dependent binding of PRM-A could be observed

Reference: publication PMC5035034, “Carbohydrate-Binding Non-Peptidic Pradimicins for the Treatment of Acute Sleeping Sickness in Murine Models” (PLoS Pathogens, 2016)
